According to ChEMBL document CHEMBL1149500, “Binding of aminoglycosidic antibiotics to the oligonucleotide A-site model and 30S ribosomal subunit: Poisson-Boltzmann model, thermal denaturation, and fluorescence studies” (J Med Chem, 2006):

Target: Ribosomal RNA A-site
Assay: Binding affinity to bacterial ribosomal A site RNA oligonucleotide
Format: nucleic-acid assay

Structure (SMILES) | Kd [µM]
CN[C@@H]1[C@@H](O)[C@@H](O[C@@H]2[C@@H](O)[C@H](O[C@H]3O[C@H]([C@@H](C)O)[C@@H](O)[C@H](O)[C@H]3N)[C@@H](N)C[C@H]2N)OC[C@]1(C)O [GENETICIN] | 14.5
CN[C@@H]1[C@H](O)[C@@H](O[C@@H]2[C@@H](O)[C@H](O[C@H]3O[C@H](CN)CC[C@H]3N)[C@@H](N)C[C@H]2N)OC[C@]1(C)O [GENTAMICIN C] | 5.53
NC[C@H]1O[C@H](O[C@H]2[C@H](O)[C@@H](O)[C@H](N)C[C@@H]2N)[C@H](N)[C@@H](O)[C@@H]1O [NEAMINE] | 7.39
NC[C@@H]1O[C@H](O[C@H]2[C@@H](O)[C@H](O[C@@H]3[C@@H](O)[C@H](N)C[C@H](N)[C@H]3O[C@H]3O[C@H](CO)[C@@H](O)[C@H](O)[C@H]3N)O[C@@H]2CO)[C@H](N)[C@@H](O)[C@@H]1O [PAROMOMYCIN] | 0.39
NC[C@H]1O[C@H](O[C@H]2[C@H](O[C@@H]3O[C@H](CO)[C@@H](O)[C@H]3O)[C@@H](O)[C@H](N)C[C@@H]2N)[C@H](N)[C@@H](O)[C@@H]1O [RIBOSTAMYCIN] | 16.4
